Assay results reported in article PMC4138103 (PLoS ONE, 2014).
Read-outs that look alike come from different tables or passages of the source.

Test system: Sprague-Dawley rats
Assay: Organ weights
Assay type: in vivo, Rattus norvegicus
Design: key to Dose response, Ovaries weight: D: significant dose response (for results see Table 2 in the text); T: significant trend
Conditions: for Emax: Rattus norvegicus; for Organ weight, Adrenals / Organ weight, Brain / Organ weight, Heart / Organ weight, Kidneys / Organ weight, Ovaries / Organ weight, Pituitary / Organ weight, Spleen / Organ weight, Thymus / Organ weight, Thyroid gland / Organ weight, Uterus: group mean
Method: At the end of the treatment period (males on study day 28–31, females on study day 28–32) the rats were anesthetized with CO2/O2 (70/30%). Blood samples were drawn from the left ventricle using Venoject needles (Terumo) and Vacuette EDTA and serum blood collection tubes, and the rats were killed by exsanguination. EDTA blood was used for hematology investigations (see below). Serum was separated, divided into aliquots, frozen in liquid nitrogen and stored at −70°C for further analysis (see below). A complete necropsy (macroscopic observations, tissue sampling for molecular biology, biochemistry, histopathology, analytical chemistry and organ weights) was performed on each rat. The weights of the following organs were recorded: adrenals, brain, epididymides, heart, kidneys, liver, lungs, ovaries, pituitary, prostate (ventral), seminal vesicles, spleen, testes, thymus, thyroids (with parathyroids) and uterus. For molecular biology and biochemical analyses samples from brain, liver, kidney, bones, and several other tissues were snap frozen in liquid nitrogen and stored at −80°C for further analysis. […] Tissue samples for histopathology were preserved in 10% neutral buffered formalin except testis and epididymis, which were fixed in Bouin's solution for 24 h after which they were transferred into 70% ethanol.
Data were also analyzed using the BMD method, which is based on dose-response modeling of the full data set using a nested family of exponential and Hill models. The analyses were done on data of males and females combined, using sex as a covariate. […] In that case, different Critical Effect Doses (CEDs) and CEDs at the lowest bound of the confidence interval (CED-L) were generated for each sex. If no difference between sexes is detected, a CED and CED-Ls for the combined data is generated. However, this was also done if the curve fits are close, and separate analyses for males and females were then performed manually. CEDs and CED-Ls were calculated at the predefined Critical Effect Size (CES) of 5% (EFSA standard) or 10%.

[1] = F, CES 5%, model E2, adipose tissue concentration based
[2] = F, CES 5%, model E4, adipose tissue concentration based
[3] = F, CES 10%, model E2, adipose tissue concentration based
[4] = F, CES 10%, model E4, adipose tissue concentration based
[5] = M, CES 5%, model E2, adipose tissue concentration based
[6] = M, CES 5%, model E4, adipose tissue concentration based
[7] = M, CES 10%, model E2, adipose tissue concentration based
[8] = M, CES 10%, model E4, adipose tissue concentration based
[9] = females, total dose 0-1700 mg/kg bw
[10] = females, CES 5%, total dose based
[11] = females, CES 10%, total dose based
[12] = females, adipose tissue concentration based
[13] = females, total dose 10 mg/kg bw
[14] = females, total dose 30 mg/kg bw
[15] = females, total dose 100 mg/kg bw
[16] = females, total dose 300 mg/kg bw
[17] = females, total dose 1000 mg/kg bw

Clc1cc(Cl)c(-c2cc(Cl)c(Cl)c(Cl)c2Cl)cc1Cl [PCB 180, 2,2′,3′,4,4′,5,5′-heptachlorobiphenyl]
CED, Thyroid gland weight [1]: 3010 µg/g lipid
CED-L, Thyroid gland weight [1]: 1698 µg/g lipid
CED, Liver weight [2]: 512 µg/g lipid
CED, Ovaries weight [2]: 201 µg/g lipid
CED-L, Liver weight [2]: 263 µg/g lipid
CED-L, Ovaries weight [2]: 31.7 µg/g lipid
CED, Thyroid gland weight [3]: 6190 µg/g lipid
CED-L, Thyroid gland weight [3]: 3488 µg/g lipid
CED, Liver weight [4]: 1090 µg/g lipid
CED, Ovaries weight [4]: 510 µg/g lipid
CED-L, Liver weight [4]: 565 µg/g lipid
CED-L, Ovaries weight [4]: 79.6 µg/g lipid
CED, Thyroid gland weight [5]: 1030 µg/g lipid
CED-L, Thyroid gland weight [5]: 720 µg/g lipid
CED, Liver weight [6]: 42.3 µg/g lipid
CED-L, Liver weight [6]: 19.8 µg/g lipid
CED, Thyroid gland weight [7]: 2010 µg/g lipid
CED-L, Thyroid gland weight [7]: 1407 µg/g lipid
CED, Liver weight [8]: 88.4 µg/g lipid
CED-L, Liver weight [8]: 41.3 µg/g lipid
Emax (F, model E2, controls vs high dose according to the fitted model, read-out: Maximum response, Relative thyroid gland weight): -16.5%
Emax (F, model E2, controls vs high dose according to the fitted model, read-out: Maximum response, Thyroid gland weight): -17.6%
Emax (F, model E4, controls vs high dose according to the fitted model, read-out: Maximum response, Liver weight): 43.1%
Emax (F, model E4, controls vs high dose according to the fitted model, read-out: Maximum response, Ovaries weight): 17%
Emax (F, model E4, controls vs high dose according to the fitted model, read-out: Maximum response, Relative liver weight): 44.8%
Emax (females, controls vs high dose, fitted model, read-out: Liver weight, Maximum response): 45%
Emax (females, controls vs high dose, fitted model, read-out: Ovaries weight, Maximum response): 17%
Emax (females, controls vs high dose, fitted model, read-out: Relative liver weight, Maximum response): 46.2%
Emax (females, controls vs high dose, fitted model, read-out: Relative thyroid gland weight, Maximum response): -17%
Emax (females, controls vs high dose, fitted model, read-out: Thyroid gland weight, Maximum response): -17.9%
Emax (males, controls vs high dose, fitted model, read-out: Liver weight, Maximum response): 66%
Emax (males, controls vs high dose, fitted model, read-out: Relative liver weight, Maximum response): 67%
Emax (males, controls vs high dose, fitted model, read-out: Relative thymus weight, Maximum response): 17.1%
Emax (males, controls vs high dose, fitted model, read-out: Relative thyroid gland weight, Maximum response): 45.2%
Emax (F, model E5, controls vs high dose according to the fitted model, read-out: Maximum response, Relative ovaries weight): 16%
Emax (model E2, controls vs high dose according to the fitted model, read-out: Maximum response, Relative thymus weight): 17.6%
Emax (model E2, controls vs high dose according to the fitted model, read-out: Maximum response, Relative thyroid gland weight): 45.7%
Emax (model E2, controls vs high dose according to the fitted model, read-out: Maximum response, Thyroid gland weight): 41.9%
Emax (model E4, controls vs high dose according to the fitted model, read-out: Maximum response, Liver weight): 65%
Emax (model E4, controls vs high dose according to the fitted model, read-out: Maximum response, Relative liver weight): 66%
Thyroid weight, max. decrease (females): 18%
Dose response, Ovaries weight [9]: D
Dose response, Thyroid gland weight [9]: D, T
Liver weight, CED [10]: 225 mg/kg bw
Liver weight, CED-L [10]: 188 mg/kg bw
Ovaries weight, CED [10]: 46.8 mg/kg bw
Ovaries weight, CED-L [10]: 6.15 mg/kg bw
Thyroid gland weight, CED [10]: 443 mg/kg bw
Thyroid gland weight, CED-L [10]: 257 mg/kg bw
Liver weight, CED [11]: 439 mg/kg bw
Liver weight, CED-L [11]: 368 mg/kg bw
Ovaries weight, CED [11]: 120 mg/kg bw
Ovaries weight, CED-L [11]: 15.4 mg/kg bw
Thyroid gland weight, CED [11]: 910 mg/kg bw
Thyroid gland weight, CED-L [11]: 528 mg/kg bw
Liver weight, CED [12]: 512 µg/g lipid
Ovary weight, CED [12]: 201 µg/g lipid
Thyroid weight, CED [12]: 3010 µg/g lipid
Liver weight, Maximum response (females, controls vs high dose, fitted model): 44.6%
Organ weight, Adrenals (females, total dose 3 mg/kg bw): 0.0648 g
Organ weight, Brain (females, total dose 3 mg/kg bw): 1.60 g
Organ weight, Heart (females, total dose 3 mg/kg bw): 0.958 g
Organ weight, Kidneys (females, total dose 3 mg/kg bw): 1.43 g
Organ weight, Ovaries (females, total dose 3 mg/kg bw): 0.093 g
Organ weight, Pituitary (females, total dose 3 mg/kg bw): 0.0112 g
Organ weight, Spleen (females, total dose 3 mg/kg bw): 0.728 g
Organ weight, Thymus (females, total dose 3 mg/kg bw): 0.528 g
Organ weight, Thyroid gland (females, total dose 3 mg/kg bw): 0.0202 g
Organ weight, Uterus (females, total dose 3 mg/kg bw): 0.372 g
Organ weight, Adrenals [13]: 0.0640 g
Organ weight, Brain [13]: 1.59 g
Organ weight, Heart [13]: 0.884 g
Organ weight, Kidneys [13]: 1.46 g
Organ weight, Ovaries [13]: 0.086 g
Organ weight, Pituitary [13]: 0.0124 g
Organ weight, Spleen [13]: 0.722 g
Organ weight, Thymus [13]: 0.470 g
Organ weight, Thyroid gland [13]: 0.0188 g
Organ weight, Uterus [13]: 0.492 g
Organ weight, Adrenals [14]: 0.0618 g
Organ weight, Brain [14]: 1.61 g
Organ weight, Heart [14]: 0.870 g
Organ weight, Kidneys [14]: 1.45 g
Organ weight, Ovaries [14]: 0.096 g
Organ weight, Pituitary [14]: 0.0124 g
Organ weight, Spleen [14]: 0.696 g
Organ weight, Thymus [14]: 0.494 g
Organ weight, Thyroid gland [14]: 0.0169 g
Organ weight, Uterus [14]: 0.353 g
Organ weight, Adrenals [15]: 0.0612 g
Organ weight, Brain [15]: 1.62 g
Organ weight, Heart [15]: 0.896 g
Organ weight, Kidneys [15]: 1.46 g
Organ weight, Ovaries [15]: 0.091 g
Organ weight, Pituitary [15]: 0.0122 g
Organ weight, Spleen [15]: 0.676 g
Organ weight, Thymus [15]: 0.480 g
Organ weight, Thyroid gland [15]: 0.0213 g
Organ weight, Uterus [15]: 0.368 g
Organ weight, Adrenals [16]: 0.0686 g
Organ weight, Brain [16]: 1.60 g
Organ weight, Heart [16]: 0.908 g
Organ weight, Kidneys [16]: 1.45 g
Organ weight, Ovaries [16]: 0.110 g
Organ weight, Pituitary [16]: 0.0121 g
Organ weight, Spleen [16]: 0.650 g
Organ weight, Thymus [16]: 0.498 g
Organ weight, Thyroid gland [16]: 0.0176 g
Organ weight, Uterus [16]: 0.352 g
Organ weight, Adrenals [17]: 0.0641 g
Organ weight, Brain [17]: 1.59 g
Organ weight, Heart [17]: 0.896 g
Organ weight, Kidneys [17]: 1.49 g
Organ weight, Ovaries [17]: 0.103 g
Organ weight, Pituitary [17]: 0.0112 g
